# ChEMBL document CHEMBL3745649, “Structure-activity relationship study of anticancer thymidine-quinoxaline conjugates under the low radiance of long wavelength ultraviolet light for photodynamic therapy” (Eur J Med Chem, 2016)
# Calls of active or inactive are those of the source. The rule behind the calls is not given here.
# Experiments:
# [1] = Induction of apoptosis in human PANC1 cells assessed as viable cells at 2 uM after 24 hrs by Annexin V-FITC/propidium iodide staining-based flow cytometric analysis in absence of UVA-1 irradiation (reference value: 88.6%); format: cell-based, PANC-1; details: read-out: Activity
# [2] = Photocytotoxicity against human PANC1 cells assessed as cell viability preincubated for 5 hrs with cells followed by white light irradiation at 0.015 mW/cm'2 for 20 mins measured after 48 hrs by CCK8 assay; format: functional, cell-based; details: PANC-1, light or radiation study
# [3] = Photocytotoxicity against human PANC1 cells assessed as cell viability preincubated for 5 hrs with cells followed by UVA-1 irradiation at 3.0 mW/cm'2 for 20 mins measured after 48 hrs by CCK8 assay; format: functional, cell-based; details: PANC-1, light or radiation study
# [4] = Induction of apoptosis in human PANC1 cells assessed as early apoptotic cells at 2 uM after 24 hrs by Annexin V-FITC/propidium iodide staining-based flow cytometric analysis in absence of UVA-1 irradiation (reference value: 9.4%); format: cell-based; details: panc-1, 24 h
# [5] = Induction of apoptosis in human PANC1 cells assessed as late apoptotic cells at 2 uM after 24 hrs by Annexin V-FITC/propidium iodide staining-based flow cytometric analysis in absence of UVA-1 irradiation (reference value: 1.5%); format: cell-based; details: panc-1, 24 h
# [6] = Induction of apoptosis in human PANC1 cells assessed as necrotic cells at 2 uM after 24 hrs by Annexin V-FITC/propidium iodide staining-based flow cytometric analysis in absence of UVA-1 irradiation (reference value: 0.5%); format: cell-based; details: panc-1, 24 h
# PANC-1 [7] = assay: Induction of apoptosis in human PANC1 cells assessed as viable cells at 2 uM preincubated for 5 hrs followed by UVA-1 irradiation at 3 mW/cm'2 for 20 mins measured after 24 hrs by Annexin V-FITC/propidium iodide staining-based flow cytometric analysis (reference value: 91%); format: functional; details: PANC-1, light or radiation study, read-out: Activity
# PANC-1 [8] = assay: Induction of apoptosis in human PANC1 cells assessed as early apoptotic cells at 2 uM preincubated for 5 hrs followed by UVA-1 irradiation at 3 mW/cm'2 for 20 mins measured after 24 hrs by Annexin V-FITC/propidium iodide staining-based flow cytometric analysis (reference value: 7.4%); format: functional
# PANC-1 [9] = assay: Induction of apoptosis in human PANC1 cells assessed as late apoptotic cells at 2 uM preincubated for 5 hrs followed by UVA-1 irradiation at 3 mW/cm'2 for 20 mins measured after 24 hrs by Annexin V-FITC/propidium iodide staining-based flow cytometric analysis (reference value: 1.3%); format: functional
# PANC-1 [10] = assay: Induction of apoptosis in human PANC1 cells assessed as necrotic cells at 2 uM preincubated for 5 hrs followed by UVA-1 irradiation at 3 mW/cm'2 for 20 mins measured after 24 hrs by Annexin V-FITC/propidium iodide staining-based flow cytometric analysis (reference value: 0.3%); format: functional
# [11] = Dark cytotoxicity against human PANC1 cells assessed as production of reactive oxygen stress at 5 uM after 5 hrs by DCFH-DA based fluorescence microscopic analysis in absence of UVA-1 irradiation; format: cell-based; details: panc-1, 5 h
# PANC-1 [12] = assay: Photocytotoxicity against human PANC1 cells assessed as production of reactive oxygen stress at 5 uM preincubated for 5 hrs followed by UVA-1 irradiation at 3 mW/cm'2 for 20 mins by DCFH-DA based fluorescence microscopic analysis; format: functional, cell-based
# [13] = Retention time of the compound at 5 uM by HPLC analysis; format: physicochemical
# PANC-1 [14] = assay: Photocytotoxicity against human PANC1 cells assessed as production of reactive oxygen stress at 5 uM preincubated for 5 hrs followed by UVA-1 irradiation at 3 mW/cm'2 for 20 mins measured after 5 hrs by HPLC analysis; format: functional, cell-based
# [15] = Retention time of the compound in human PANC1 cells at 5 uM after 5 hrs by HPLC analysis in absence of UVA-1 irradiation; format: ADME, cell-based; details: panc-1, 5 h
# [16] = Retention time of the compound in human PANC1 cells at 5 uM preincubated for 5 hrs followed by UVA-1 irradiation at 3 mW/cm'2 for 20 mins measured after 5 hrs by HPLC analysis; format: ADME, cell-based; details: panc-1, 5 µM
# Bel-7402 [17] = assay: Photocytotoxicity against human Bel7402 cells assessed as production of reactive oxygen stress at 5 uM preincubated for 5 hrs followed by UVA-1 irradiation at 0.85 mW/cm'2 for 20 mins measured for 4 to 10 mins by DCFH-DA based fluorescence microscopic analysis; format: functional, cell-based
# PANC-1 [18] = assay: Photocytotoxicity against human PANC1 cells assessed as production of reactive oxygen stress at 5 uM preincubated for 5 hrs followed by UVA-1 irradiation at 0.85 mW/cm'2 for 20 mins measured for 4 to 10 mins by DCFH-DA based fluorescence microscopic analysis; format: functional, cell-based
# PANC-1 [19] = assay: Potency index, ratio of sunitinib EC50 to compound EC50 for human PANC1 cells in presence of UVA-1 irradiation at 3 mW/cm'2; format: functional
# Bel-7402 [20] = assay: Potency index, ratio of sunitinib EC50 to compound EC50 for human Bel7402 cells in presence of UVA-1 irradiation at 3 mW/cm'2; format: functional
# PANC-1 [21] = assay: Ratio of EC50 for human PANC1 cells in presence of UVA-1 irradiation at 0.85 mW/cm'2 to EC50 for human PANC1 cells in presence of UVA-1 irradiation at 3 mW/cm'2; format: functional
# Bel-7402 [22] = assay: Ratio of EC50 for human Bel7402 cells in presence of UVA-1 irradiation at 0.85 mW/cm'2 to EC50 for human Bel7402 cells in presence of UVA-1 irradiation at 3 mW/cm'2; format: functional
# [23] = Photocytotoxicity against human PANC1 cells assessed as cell viability at 10 uM preincubated for 5 hrs with cells followed by white light irradiation at 0.015 mW/cm'2 for 20 mins measured after 48 hrs by CCK8 assay relative to control; format: functional; details: PANC-1, light or radiation study, read-out: Activity
# [24] = Dark toxicity against human Bel7402 cells assessed as cell viability after 53 hrs by CCK8 assay in absence of UVA-1 irradiation; format: cell-based, Bel-7402
# [25] = Dark toxicity against human PANC1 cells assessed as cell viability after 53 hrs by CCK8 assay in absence of UVA-1 irradiation; format: cell-based, PANC-1
# [26] = Photocytotoxicity against human Bel7402 cells assessed as cell viability preincubated for 5 hrs followed by UVA-1 irradiation at 0.85 mW/cm'2 for 20 mins measured after 48 hrs by CCK8 assay; format: functional, cell-based; details: Bel-7402, light or radiation study
# [27] = Photocytotoxicity against human PANC1 cells assessed as cell viability preincubated for 5 hrs followed by UVA-1 irradiation at 0.85 mW/cm'2 for 20 mins measured after 48 hrs by CCK8 assay; format: functional, cell-based; details: PANC-1, light or radiation study
# Bel-7402 [28] = assay: Photocytotoxicity against human Bel7402 cells assessed as cell viability pretreated with UVA-1 irradiation at 3.0 mW/cm'2 for 20 mins followed by cell addition measured after 48 hrs by CCK8 assay; format: functional, cell-based
# PANC-1 [29] = assay: Photocytotoxicity against human PANC1 cells assessed as cell viability preincubated for 24 hrs with cells followed by UVA-1 irradiation for 20 mins at 3.0 mW/cm'2 measured after 48 hrs by CCK8 assay; format: functional, cell-based
# PANC-1 [30] = assay: Photocytotoxicity against human PANC1 cells assessed as cell viability pretreated with UVA-1 irradiation at 3.0 mW/cm'2 for 20 mins followed by cell addition measured after 48 hrs by CCK8 assay; format: functional, cell-based
# [31] = Photocytotoxicity against human Bel7402 cells assessed as cell viability preincubated for 5 hrs with cells followed by UVA-1 irradiation at 3.0 mW/cm'2 for 20 mins measured after 48 hrs by CCK8 assay; format: functional, cell-based; details: Bel-7402, light or radiation study
# Bel-7402 [32] = assay: Photocytotoxicity against human Bel7402 cells assessed as cell viability preincubated for 24 hrs with cells followed by UVA-1 irradiation for 20 mins at 3.0 mW/cm'2 measured after 48 hrs by CCK8 assay; format: functional, cell-based
# [33] = Photocytotoxicity against human Bel7402 cells assessed as cell viability at 10 uM preincubated for 5 hrs with cells followed by white light irradiation at 0.015 mW/cm'2 for 20 mins measured after 48 hrs by CCK8 assay relative to control; format: functional; details: Bel-7402, light or radiation study, read-out: Activity
# [34] = Photocytotoxicity against human Bel7402 cells assessed as cell viability preincubated for 5 hrs with cells followed by white light irradiation at 0.015 mW/cm'2 for 20 mins measured after 48 hrs by CCK8 assay; format: functional, cell-based; details: Bel-7402, light or radiation study
# [35] = Photocytotoxicity against human Bel7402 cells assessed as cell viability preincubated for 5 hrs followed by UVA-1 irradiation at 5.4 mW/cm'2 for 20 mins measured after 48 hrs by CCK8 assay; format: functional, cell-based; details: Bel-7402, light or radiation study
# [36] = Photocytotoxicity against human PANC1 cells assessed as cell viability preincubated for 5 hrs followed by UVA-1 irradiation at 5.4 mW/cm'2 for 20 mins measured after 48 hrs by CCK8 assay; format: functional, cell-based; details: PANC-1, light or radiation study
smiles,measurement,setting,value
Cc1cn([C@H]2C[C@H](n3cc(CNC(=O)CCCCCOc4ccc5c(c4)-c4nc6cc(Cl)c(Cl)cc6nc4[C@@H]4C(C)(C)CCC[C@]54C)nn3)[C@@H](CO)O2)c(=O)[nH]c1=O,"viability at 24 h, 2 µM",[1],89.4%
same,EC50,[2],> 10 µM
same,EC50,[3],1.3 µM
same,Activity,[4],8.8%
same,Activity,[5],1.4%
same,Activity,[6],0.4%
same,viability at 2 µM,PANC-1 [7],40.5%
same,Activity,PANC-1 [8],11.9%
same,Activity,PANC-1 [9],44.1%
same,Activity,PANC-1 [10],3.5%
same,Activity,[11],Non-toxic
same,Activity,PANC-1 [12],Active
same,Retention_time,[13],68 min
same,Activity,PANC-1 [14],Active
same,Retention_time,[15],68 min
same,Retention_time,[16],68 min
same,Activity,Bel-7402 [17],Active
same,Activity,PANC-1 [18],Active
same,Ratio EC50,PANC-1 [19],20
same,Ratio EC50,Bel-7402 [20],10
same,Ratio EC50,PANC-1 [21],4
same,Ratio EC50,Bel-7402 [22],3
same,viability at 10 µM,[23],< 40%
same,EC50 at 53 h,[24],> 20 µM
same,EC50 at 53 h,[25],≥ 50 µM
same,EC50,[26],2 µM
same,EC50,[27],5.7 µM
same,Activity,Bel-7402 [28],inactive
same,Activity,PANC-1 [29],Active
same,Activity,PANC-1 [30],inactive
same,EC50,[31],0.67 µM
same,Activity,Bel-7402 [32],Active
same,viability at 10 µM,[33],< 40%
same,EC50,[34],> 10 µM
same,EC50,[35],0.61 µM
same,EC50,[36],1.2 µM
